# Data published in publication PMC9848259 (Journal of Enzyme Inhibition and Medicinal Chemistry, 2023).
# How the values were obtained:
# SH-SY5Y cells [1] = assay: Neuroprotection against H2O2-induced oxidative stress, MTT test; assay type: cell-based, human; conditions: H2O2 100 µM
# SH-SY5Y cells [2] = assay: Neuroprotection against rotenone/oligomycin A, co-incubation, MTT test; assay type: cell-based, human; conditions: Rotenone/Oligomycin A 30/10 µM
# in vitro = assay type: cell-based; conditions: human, human hepatic stellate cells (HSCs), read-out: cell viability (hepatotoxicity, MTT)
# Experimental: Human hepatic stellate cells (HSCs, Sciencell) were grown in the Stellate Cell Medium (Sciencell) supplemented with 2% Foetal Bovine Serum (Sciencell), 1% Stellate Cell Growth Supplement (Sciencell) and 1% penicillin/streptomycin solution (Sciencell). The cells were cultured in the incubator at 37 °C and 5% CO2. To start the experiment, the cells were seeded at a density of 5 × 10^3 cells/well in 96-well plates and incubated (37 °C, 5% CO2) for 24 h. After incubation, medium was removed from the wells and the cells were exposed to 100 µl of the compound over a range of concentrations (from 0.1 to 10 µM) or 100 µl of culture medium alone (blank control). The cells were then further incubated for 24 h. After this time, the medium was removed, the cells were washed with PBS and 50 µl of MTT solution (0.75 mg/ml) was added to each well. The plates were incubated in the dark at 37 °C for another two hours. The MTT solution was then removed from the wells and 100 µl of DMSO was added. The plates were incubated at room temperature for 10 min and then 5 µl of Sorensen Buffer was added to each well. The plates were swayed and the absorbance at 570 nm was measured with a microplate reader (Synergy H1, BioTek, Winooski, VT, USA). The cell viability was expressed as a percentage of the control values (blank control)[40]^,[46]^,[47].
compound,measurement,setting,value
O=C(NCCCCCCNc1c2c(nc3ccccc13)CCC2)c1cc(Cl)cc(Cl)c1 [Compound 3e],% neuroprotection,SH-SY5Y cells [1]; compound 0.01 µM,40.04%
same,% neuroprotection,SH-SY5Y cells [1]; compound 0.1 µM,79.34%
same,% neuroprotection,SH-SY5Y cells [1]; compound 1 µM,71%
same,% neuroprotection,SH-SY5Y cells [2]; compound 0.0001 µM,12.75%
same,% neuroprotection,SH-SY5Y cells [2]; compound 0.001 µM,8.67%
same,% neuroprotection,SH-SY5Y cells [2]; compound 0.01 µM,2.82%
same,"viability at 24 h, 0.1 µM",in vitro; 0.1 µM,102%
same,"viability at 24 h, 1 µM",in vitro; 1 µM,100%
same,"viability at 24 h, 10 µM",in vitro; 10 µM,97.3%
